Patent publication US11008346B2, “Beta-lactamase inhibitors” (priority 2014, dated 2021)

Columns and labels:
[1] = biological target: T1, SHV-5 β-lactamase (Klebsiella pneumoniae, UniProt P0A3M1); experiment: β-lactamase enzyme inhibition, SHV-5; format: biochemical
T1 construct: made in house; host or cells: E. coli BL21(DE3)
Summary of the method: (§1)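 Enzyme + inhibitor, 15 min, 37° C; substrate added, absorbance read 10 min. OXA-1/p99 AmpC: nitrocefin 100 μM final, A486. KPC-2: imipenem, A300. SHV-5: cefotaxime, A260. IC50 = 50% drop in initial hydrolysis rate vs no-inhibitor control.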

[2] = biological target: T2, KPC-2 β-lactamase (Klebsiella pneumoniae, UniProt Q9F663); experiment: β-lactamase enzyme inhibition, KPC-2; format: biochemical; settings: imipenem substrate, 300 nm; 15 min at 37° C. preincubation; read-out: IC50 KPC-2 (Class A)
T2 construct: made in house; host or cells: E. coli BL21(DE3)
Summary of the method: as §1

[3] = biological target: T3, VIM-2 metallo β-lactamase (Pseudomonas aeruginosa, UniProt Q9K2N0); experiment: β-lactamase enzyme inhibition, VIM-2; format: biochemical; settings: Nitrocefin 100 μM, 486 nm; 15 min at 37° C. preincubation; read-out: IC50 VIM-2 (Class B)
T3 construct: made in house; host or cells: E. coli BL21(DE3)
Summary of the method: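 Inhibitor and enzyme sat together 15 min at 37° C before 100 μM nitrocefin (final) was added and 486 nm absorbance read for 10 min. IC50 is the concentration halving initial hydrolysis rate relative to uninhibited wells. Protein came from Q sepharose anion exchange at pH 7.5, repeated to >90% purity.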

[4] = biological target: T4, p99 AmpC β-lactamase (Enterobacter cloacae, UniProt P05364); experiment: β-lactamase enzyme inhibition, p99 AmpC; format: biochemical
T4 construct: made in house; host or cells: E. coli BL21(DE3)
Summary of the method: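 Inhibitor and enzyme were incubated 15 min at 37°C first. The enzyme was recombinant p99 AmpC, untagged, from E. coli BL21(DE3), purified by ion-exchange and size-exclusion chromatography.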

[5] = biological target: T5, OXA-1 β-lactamase (Escherichia coli, UniProt P13661); experiment: β-lactamase enzyme inhibition, OXA-1; format: biochemical; settings: Nitrocefin 100 μM, 486 nm; 15 min at 37° C. preincubation; read-out: IC50 OXA-1 (Class D)
T5 construct: made in house; host or cells: E. coli BL21(DE3)
Summary of the method: as §1

[6] = test system: E. coli ESBL4 expressing CTX-M-15; experiment: broth microdilution MIC, E. coli CTX-M-15; format: cell-based; settings: Fixed CAZ (ceftazidime) 4 μg/mL
Summary of the method: (§2)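 CAMHB; strains pre-grown 3-5 h. Test cpd 2-fold dilutions, 32→0.25 μg/mL final, + beta-lactam static 4 μg/mL. CLSI inoculation, 16-20 h at 37° C, visual MIC.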

[7] = test system: E. cloacae 144200 expressing Class C P99 AmpC; experiment: broth microdilution MIC, E. cloacae P99; format: cell-based; settings: Fixed CAZ (ceftazidime) 4 μg/mL
Summary of the method: as §2

[8] = test system: K. pneumoniae 156319 expressing KPC-3; experiment: broth microdilution MIC, K. pneumoniae KPC-3; format: cell-based; settings: Fixed Mero (meropenem) 4 μg/mL
Summary of the method: as §2

[9] = test system: P. aeruginosa Ps296 expressing VIM-2; experiment: broth microdilution MIC, P. aeruginosa VIM-2; format: cell-based; settings: Fixed Mero (meropenem) 4 μg/mL
Summary of the method: as §2

[10] = test system: K. pneumoniae A-1797 expressing KPC-2 and VIM-4; experiment: broth microdilution MIC, K. pneumoniae KPC-2 and VIM-4; format: cell-based; settings: Fixed Mero (meropenem) 4 μg/mL
Summary of the method: as §2

[11] = test system: S. aureus MSSA-7 producing penicillinase PC-1; experiment: broth microdilution MIC, S. aureus PC-1; format: cell-based; settings: Fixed Pip (piperacillin) 4 μg/mL
Summary of the method: as §2

T4 sequence (P05364 21-381): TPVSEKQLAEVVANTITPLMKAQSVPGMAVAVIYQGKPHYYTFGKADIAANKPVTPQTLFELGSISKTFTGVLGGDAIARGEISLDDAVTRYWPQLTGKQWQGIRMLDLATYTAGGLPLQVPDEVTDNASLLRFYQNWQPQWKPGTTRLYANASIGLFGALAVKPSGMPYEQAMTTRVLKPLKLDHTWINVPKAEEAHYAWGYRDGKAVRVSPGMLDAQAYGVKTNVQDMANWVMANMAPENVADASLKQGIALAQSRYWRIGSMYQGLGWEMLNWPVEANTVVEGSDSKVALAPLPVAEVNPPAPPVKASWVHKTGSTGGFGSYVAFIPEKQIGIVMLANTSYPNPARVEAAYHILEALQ
T1 sequence (P0A3M1 22-286): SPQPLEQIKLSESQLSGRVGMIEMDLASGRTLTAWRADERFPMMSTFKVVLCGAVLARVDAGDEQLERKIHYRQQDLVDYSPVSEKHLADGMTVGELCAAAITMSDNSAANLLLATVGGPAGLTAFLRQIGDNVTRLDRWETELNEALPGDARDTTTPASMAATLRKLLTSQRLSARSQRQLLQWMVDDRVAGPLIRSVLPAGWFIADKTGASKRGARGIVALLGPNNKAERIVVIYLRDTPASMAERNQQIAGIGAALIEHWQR
T2 sequence (Q9F663 25-293, looked up): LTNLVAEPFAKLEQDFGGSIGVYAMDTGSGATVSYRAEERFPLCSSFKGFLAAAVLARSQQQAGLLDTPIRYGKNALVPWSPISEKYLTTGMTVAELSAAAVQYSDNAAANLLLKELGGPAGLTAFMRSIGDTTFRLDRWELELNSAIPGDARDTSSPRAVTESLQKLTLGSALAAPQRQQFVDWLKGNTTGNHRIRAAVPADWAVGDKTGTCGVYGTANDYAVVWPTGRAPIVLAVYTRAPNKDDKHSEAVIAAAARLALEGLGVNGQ
T5 sequence (P13661 26-276): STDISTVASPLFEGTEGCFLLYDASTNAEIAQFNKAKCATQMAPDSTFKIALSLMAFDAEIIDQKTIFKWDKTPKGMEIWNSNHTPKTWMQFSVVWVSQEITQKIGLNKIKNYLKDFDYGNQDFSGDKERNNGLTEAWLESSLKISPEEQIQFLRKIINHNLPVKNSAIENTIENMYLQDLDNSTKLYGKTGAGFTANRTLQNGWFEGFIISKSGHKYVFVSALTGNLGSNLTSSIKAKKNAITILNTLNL

SMILES	IC50 [1] [nM]	IC50 [2] [nM]	IC50 [3] [nM]	IC50 [4] [nM]	IC50 [5] [nM]	MIC of exemplary compounds in presence of fixed β-lactams, E. coli ESBL4 CTX-M-15 [6]	MIC of exemplary compounds in presence of fixed β-lactams, E. cl. 144200 p99 AmpC [7]	MIC of exemplary compounds in presence of fixed β-lactams, K.P. 156319 KPC-3 [8]	MIC of exemplary compounds in presence of fixed β-lactams, P. aerug. Ps296 VIM-2 [9]	MIC of exemplary compounds in presence of fixed β-lactams, K.P. A-1797 KPC-2 VIM-4 [10]	MIC of exemplary compounds in presence of fixed β-lactams, S. aureus MSSA-7 PC-1 [11]
O=C(CCc1cncs1)N[C@H]1Cc2cccc(C(=O)O)c2OB1O [Example 32, (R)-2-hydroxy-3-(3-(thiazol-5-yl)propanamido)-3,4-dihydro-2H-benzo[e][1,2]oxaborinine-8-carboxylicacid]	< 100	< 100	1000 to 10000	< 100	< 100	C (C represents the MIC in the presence of ≤4 g/mL of a β-lactamase inhibitor)	C (C represents the MIC in the presence of ≤4 g/mL of a β-lactamase inhibitor)	C (C represents the MIC in the presence of ≤4 g/mL of a β-lactamase inhibitor)	C (C represents the MIC in the presence of ≤4 g/mL of a β-lactamase inhibitor)	B (B represents the MIC in the presence of between 8 and 32 g/mL of a β-lactamase inhibitor)	C (C represents the MIC in the presence of ≤4 g/mL of a β-lactamase inhibitor)
O=C(CN1CCCC1=O)N[C@H]1Cc2cccc(C(=O)O)c2OB1O [Example 33, (R)-2-Hydroxy-3-[2-(2-oxo-pyrrolidin-1-yl)-acetylamino]-3,4-dihydro-2H-benzo[e][1,2]oxaborinine-8-carboxylic acid]	< 100	< 100	1000 to 10000	< 100	< 100	C (C represents the MIC in the presence of ≤4 g/mL of a β-lactamase inhibitor)	C (C represents the MIC in the presence of ≤4 g/mL of a β-lactamase inhibitor)	C (C represents the MIC in the presence of ≤4 g/mL of a β-lactamase inhibitor)	C (C represents the MIC in the presence of ≤4 g/mL of a β-lactamase inhibitor)	C (C represents the MIC in the presence of ≤4 g/mL of a β-lactamase inhibitor)	C (C represents the MIC in the presence of ≤4 g/mL of a β-lactamase inhibitor)
O=C(CCN1C(=O)CCC1=O)N[C@H]1Cc2cccc(C(=O)O)c2OB1O [Example 34, (R)-3-[3-(2,5-Dioxo-pyrrolidin-1-yl)-propionylamino]-2-hydroxy-3,4-dihydro-2H-benzo[e][1,2]oxaborinine-8-carboxylicacid]	< 100	< 100	1000 to 10000	< 100	< 100	C (C represents the MIC in the presence of ≤4 g/mL of a β-lactamase inhibitor)	C (C represents the MIC in the presence of ≤4 g/mL of a β-lactamase inhibitor)	B (B represents the MIC in the presence of between 8 and 32 g/mL of a β-lactamase inhibitor)	B (B represents the MIC in the presence of between 8 and 32 g/mL of a β-lactamase inhibitor)	B (B represents the MIC in the presence of between 8 and 32 g/mL of a β-lactamase inhibitor)	C (C represents the MIC in the presence of ≤4 g/mL of a β-lactamase inhibitor)
O=C(/C=C/c1cocn1)N[C@H]1Cc2cccc(C(=O)O)c2OB1O [Example 44, (R)-2-Hydroxy-3-(3-oxazol-4-yl-acryloylamino)-3,4-dihydro-2H-benzo[e][1,2]oxaborinine-8-carboxylicacid]	< 100	< 100	100 to 1000	< 100	< 100	C (C represents the MIC in the presence of ≤4 g/mL of a β-lactamase inhibitor)	C (C represents the MIC in the presence of ≤4 g/mL of a β-lactamase inhibitor)	C (C represents the MIC in the presence of ≤4 g/mL of a β-lactamase inhibitor)	C (C represents the MIC in the presence of ≤4 g/mL of a β-lactamase inhibitor)	B (B represents the MIC in the presence of between 8 and 32 g/mL of a β-lactamase inhibitor)	C (C represents the MIC in the presence of ≤4 g/mL of a β-lactamase inhibitor)
O=C(CCc1cocn1)N[C@H]1Cc2cccc(C(=O)O)c2OB1O [Example 45, (R)-2-Hydroxy-3-(3-oxazol-4-yl-propionylamino)-3,4-dihydro-2H-benzo[e][1,2]oxaborinine-8-carboxylic acid]	< 100	< 100	1000 to 10000	< 100	< 100	C (C represents the MIC in the presence of ≤4 g/mL of a β-lactamase inhibitor)	C (C represents the MIC in the presence of ≤4 g/mL of a β-lactamase inhibitor)	C (C represents the MIC in the presence of ≤4 g/mL of a β-lactamase inhibitor)	C (C represents the MIC in the presence of ≤4 g/mL of a β-lactamase inhibitor)	B (B represents the MIC in the presence of between 8 and 32 g/mL of a β-lactamase inhibitor)	C (C represents the MIC in the presence of ≤4 g/mL of a β-lactamase inhibitor)
CC(=O)N[C@H]1Cc2cccc(C(=O)O)c2OB1O [Example 61, (R)-3-Acetylamino-2-hydroxy-3,4-dihydro-2H-benzo[e][1,2]oxaborinine-8-carboxylic acid]	100 to 1000	< 100	1000 to 10000	< 100	100 to 1000	C (C represents the MIC in the presence of ≤4 g/mL of a β-lactamase inhibitor)	C (C represents the MIC in the presence of ≤4 g/mL of a β-lactamase inhibitor)	C (C represents the MIC in the presence of ≤4 g/mL of a β-lactamase inhibitor)	C (C represents the MIC in the presence of ≤4 g/mL of a β-lactamase inhibitor)	B (B represents the MIC in the presence of between 8 and 32 g/mL of a β-lactamase inhibitor)	C (C represents the MIC in the presence of ≤4 g/mL of a β-lactamase inhibitor)
